Reference: patent publication US20050282824A1, “Substituted pyrimidines as inhibitors of bacterial type III protein secretion systems” (priority 2004, published 2005)

Key:
Assay type in all cases: cell-based
[1] = system: SPI1 type III protein secretion of SipB by S. enterica; test: Secondary assay: Type III-dependent protein secretion of the SipB polypeptide by S. enterica; conditions: Salmonella enterica, read-out: SipB IC50(uM)
Description: Secondary assay: Type III-dependent protein secretion of the SipB polypeptide by S. enterica. The SipB protein of S. enterica is another effector of the SPI1 type III protein secretion system from S. enterica. In this cell-based procedure, the Type III-dependent secretion of SipB from the bacterial cytoplasm to the extracellular medium was measured through its reactivity with a cognate mouse monoclonal.
Salmonella enterica cells growing either in the presence or in the absence of inhibitors are induced for the production of SipB. Following an established period of growth the cells are sedimented and the amount of SipB present in the supernatant is quantified with a scanning imager following application of immunoblot techniques. Detection may employ an anti-SipB mouse monoclonal antibody (e.g., obtained from Jorge Galan, SUNY at Stony Brook, N.Y.) followed by treatment with commercially available sheep anti-mouse polyclonal antibody conjugated with horseradish peroxidase. Thereafter the membrane is treated with a peroxidase chemiluminescent substrate and exposed to film for an appropriate exposure time. Inhibition may be measured relative to untreated controls.

[2] = system: SPI1 type III protein secretion of SopE'-'Bla by Salmonella enterica; test: Primary assay: Type III protein secretion of the chimeric SopE'-'Bla polypeptide by Salmonella enterica; conditions: read-out: SopE IC50(uM)
Source text: Primary assay: Type III protein secretion of the chimeric SopE′-′Bla polypeptide by Salmonella enterica. This procedure is a cell-based assay that measures the type III-dependent secretion by Salmonella enterica of a plasmid-encoded chimeric polypeptide whose synthesis can be regulated, and which is endowed with an enzymatic activity that can be monitored […] by hydrolysis of a substrate that is unable to penetrate into the bacterial cytoplasm within the time constraints of the reaction. Thus, the colorimetric reaction is not influenced by SopE′-′Bla polypeptide in the bacterial cytoplasm. Instead, it effectively measures the amount of polypeptide that has been secreted from the S. enterica cytoplasm to the extracellular medium via type III system protein secretion.
The SopE′-′Bla recombinant polypeptide consists of two functionally distinct domains spliced together. The N-terminus domain is encoded by a polynucleotide region specifying the signal for type III secretion of the SopE polypeptide of S. enterica, an effector of the SPI1 type III protein secretion system. The C-terminus domain of SopE′-′Bla consists of a 263 amino acid peptide sequence that corresponds to the TEM-1 β-lactamase expressed by plasmid pBR322 but without its N-terminal signal sequence. The TEM-1 β-lactamase part of the SopE′-′Bla chimeric polypeptide is used as a reporter enzyme. It is capable of hydrolyzing nitrocefin resulting in a product whose accumulation can be monitored by colorimetric detection. The secretion of the SopE′-′Bla chimeric polypeptide from the cytoplasm to the extracellular medium is dependent on type III protein secretion.
For this procedure, cells grown under conditions known to favor a functional SPI1 secretion system are induced for expression of the SopE′-′Bla protein and grown either in the presence or in the absence of putative inhibitors for determined time. Nitrocefin is then added to the various cultures and its hydrolysis are used for quantitation. An inhibitor of Type III protein secretion is generally a compound that reduces the signal of the enzymatic reaction by decreasing the amount of SopE′-′Bla secreted into the extracellular medium.

[3] = system: Type III protein secretion of ExoU by P. aeruginosa PA103; test: Tertiary assay: Type III-dependent secretion of ExoU by P. aeruginosa PA103; conditions: Pseudomonas aeruginosa, read-out: ExoU IC50(uM)
Source text: Tertiary assay: inhibition of Type III protein secretion of effectors from a Pseudomonas aeruginosa system. Type III protein secretion is used by P. aeruginosa to secrete several essential virulence determinants. One effector of the type III protein secretion system of P. aeruginosa PA 103 is the virulence determinants ExoU.
The amount of Type III-dependent secretion of ExoU by P. aeruginosa PA103 can be determined in a cell-based assay by quantification of the 73.9 kDa ExoU protein secreted into the extracellular medium. Such quantitation can be achieved by growing strain PA 103 in a deferrated medium in the presence of nitrilotriacetic acid (an inducer of Type III protein secretion in P. aeruginosa) and either in the presence or absence of putative inhibitors. After a prolonged growth period, the cells are sedimented and the supernatants concentrated by ammonium sulfate precipitation. The proteins in the resuspended pellets are separated by electrophoresis on SDS-polyacrylamide gels. After staining gels with Colloidal Blue™, the 73.9 kDa ExoU band is quantitated by scanning through an imager. The effects of inhibitors on the intensity of the ExoU band may be measured relative to that of untreated controls.

Compound | IC50 [1] [µM] | IC50 [2] [µM] | IC50 [3] [µM]
O=C(NC(Cc1ccc(Cl)cc1)C(=O)O)c1cc(-c2cccc(C(F)(F)F)c2)nc(N2CCN(c3ccccc3)CC2)n1 (stereo in doubt) [Compound 31, (R)-3-(4-Chlorophenyl)-2-{[2-(4-phenyl-piperazin-1-yl)-6-(3-trifluoromethylphenyl)pyrimidine-4-carbonyl]amino}propionic acid] | 13.3 | 4.1 | 88.7
O=C(N[C@H](Cc1ccc(Cl)cc1)C(=O)O)c1cc(N2CCc3ccccc3C2)nc(-c2cccc(C(F)(F)F)c2)n1 [Compound 7, (R)-3-(4-Chlorophenyl)-2-{[6-(3,4-dihydro-1H-isoquinolin-2-yl)-2-(3-trifluoromethylphenyl)pyrimidine-4-carbonyl]amino}propionic acid] | > 100 | 1.2 | –
O=C(N[C@H](Cc1ccc(Cl)cc1)C(=O)O)c1cc(N2CCc3ccccc3C2)nc(-c2ccc(C(F)(F)F)cc2)n1 [Compound 8, (R)-3-(4-Chlorophenyl)-2-{[6-(3,4-dihydro-1H-isoquinolin-2-yl)-2-(4-trifluoromethylphenyl)pyrimidine-4-carbonyl]amino}propionic acid] | > 100 | 2 | –
N#Cc1ccc(-c2nc(C(=O)N[C@H](Cc3ccc(Cl)cc3)C(=O)O)cc(N3CCc4ccccc4C3)n2)cc1 [Compound 10, (R)-3-(4-Chlorophenyl)-2-{[2-(4-cyanophenyl)-6-(3,4-dihydro-1H-isoquinolin-2-yl)pyrimidine-4-carbonyl]amino}propionic acid] | > 100 | 4.3 | –
O=C(N[C@@H](CSCc1ccccc1)C(=O)O)c1cc(N2CCN(c3ccccc3)CC2)nc(-c2ccc(Cl)c(Cl)c2)n1 [Compound 20, (R)-3-Benzylsulfanyl-2-{[2-(3,4-dichlorophenyl)-6-(4-phenyl-piperazin-1-yl)-pyrimidine-4-carbonyl]amino}propionic acid] | > 100 | 2.1 | –
O=C(N[C@@H](COCc1ccccc1)C(=O)O)c1cc(N2CCCCC2)nc(N2CCC(c3ccccc3)CC2)n1 [Compound 28, (S)-3-Benzyloxy-2-{[2-(4-phenylpiperidin-1-yl)-6-piperidin-1-yl-pyrimidine-4-carbonyl]amino}propionic acid] | 18.5 | 5.2 | –
CC1CCN(c2cc(C(=O)N[C@@H](CSCc3ccccc3)C(=O)O)nc(-c3ccc(Oc4ccccc4)cc3)n2)CC1 [Compound 37, (R)-3-Benzylsulfanyl-2-{[6-(4-methylpiperidin-1-yl)-2-(4-phenoxyphenyl)-pyrimidine-4-carbonyl]amino}propionic acid] | > 100 | 1.7 | –
CN1CCN(c2nc(C(=O)N[C@@H](CSCc3ccccc3)C(=O)O)cc(N3CCN(c4nccc(C(F)(F)F)n4)CC3)n2)CC1 [Compound 44, (R)-3-Benzylsulfanyl-2-({2-(4-methyl-piperazin-1-yl)-6-[4-(4-trifluoromethyl-pyrimidin-2-yl)piperazin-1-yl]pyrimidine-4-carbonyl}amino)propionic acid] | > 100 | 85 | –
CC1CCN(c2nc(C(=O)N[C@@H](CSCc3ccccc3)C(=O)O)cc(N3CCN(c4nccc(C(F)(F)F)n4)CC3)n2)CC1 [Compound 46, (R)-3-Benzylsulfanyl-2-({2-(4-methylpiperidin-1-yl)-6-[4-(4-trifluoromethyl-pyrimidin-2-yl)piperazin-1-yl]pyrimidine-4-carbonyl}amino)propionic acid] | 10.6 | 3.4 | –
CN(C)c1ccc(-c2nc(C(=O)N[C@@H](CSCc3ccccc3)C(=O)O)cc(N3CCN(c4nccc(C(F)(F)F)n4)CC3)n2)cc1 [Compound 50, (R)-3-Benzylsulfanyl-2-({2-(4-dimethylaminophenyl)-6-[4-(4-trifluoromethyl-pyrimidin-2-yl)piperazin-1-yl]pyrimidine-4-carbonyl}amino)propionic acid] | > 100 | 20.1 | –
O=C(N[C@@H](CSCc1ccccc1)C(=O)O)c1cc(N2CCN(c3nccc(C(F)(F)F)n3)CC2)nc(-c2ccc([N+](=O)[O-])cc2)n1 [Compound 52, (R)-3-Benzylsulfanyl-2-({2-(4-nitrophenyl)-6-[4-(4-trifluoromethylpyrimidin-2-yl)-piperazin-1-yl]pyrimidine-4-carbonyl}amino)propionic acid] | 15 | 10.4 | –
O=C(N[C@@H](COCc1ccccc1)C(=O)O)c1cc(N2CCN(c3nccc(C(F)(F)F)n3)CC2)nc(-c2ccc(F)cc2)n1 [Compound 54, (S)-3-Benzyloxy-2-({2-(4-fluorophenyl)-6-[4-(4-trifluoromethylpyrimidin-2-yl)-piperazin-1-yl]pyrimidine-4-carbonyl}amino)propionic acid] | 2.7 | 1.3 | –
O=C(N[C@@H](CSCc1ccccc1)C(=O)O)c1cc(N2CCN(c3nccc(C(F)(F)F)n3)CC2)nc(-c2ccc(F)cc2)n1 [Compound 55, (R)-3-Benzylsulfanyl-2-({2-(4-fluorophenyl)-6-[4-(4-trifluoromethylpyrimidin-2-yl)-piperazin-1-yl]pyrimidine-4-carbonyl}amino)propionic acid] | 20.5 | 2.4 | –
O=C(N[C@@H](COCc1ccccc1)C(=O)O)c1cc(N2CCN(c3nccc(C(F)(F)F)n3)CC2)nc(-c2cccs2)n1 [Compound 57, (S)-3-Benzyloxy-2-({2-thiophen-2-yl-6-[4-(4-trifluoromethylpyrimidin-2-yl)-piperazin-1-yl]pyrimidine-4-carbonyl}amino)propionic acid] | 13.3 | 28.7 | –
O=C(N[C@@H](CSCc1ccccc1)C(=O)O)c1cc(N2CCN(c3nccc(C(F)(F)F)n3)CC2)nc(-c2cccs2)n1 [Compound 58, (R)-3-Benzylsulfanyl-2-({2-thiophen-2-yl-6-[4-(4-trifluoromethylpyrimidin-2-yl)-piperazin-1-yl]pyrimidine-4-carbonyl}amino)propionic acid] | 10.6 | 4.5 | –
O=C(NC(Cc1ccc(Cl)cc1)C(=O)O)c1cc(N2CCN(c3nccc(C(F)(F)F)n3)CC2)nc(-c2cccs2)n1 (stereo not shown) [Compound 59, 3-(4-Chlorophenyl)-2-({2-thiophen-2-yl-6-[4-(4-trifluoromethylpyrimidin-2-yl)-piperazin-1-yl]pyrimidine-4-carbonyl}amino)propionic acid] | 17.1 | 1.8 | –
O=C(NC(Cc1ccc(Cl)cc1)C(=O)O)c1cc(N2CCN(c3nccc(C(F)(F)F)n3)CC2)nc(-c2ccoc2)n1 (stereo not shown) [Compound 62, 3-(4-Chlorophenyl)-2-({2-furan-3-yl-6-[4-(4-trifluoromethylpyrimidin-2-yl)-piperazin-1-yl]pyrimidine-4-carbonyl}amino)propionic acid] | 12.6 | 5.4 | –
C=C(NC(=O)c1cc(N2CCN(c3nccc(C(F)(F)F)n3)CC2)nc(-c2ccoc2)n1)C(=O)O [Compound 63, 2-({2-Furan-3-yl-6-[4-(4-trifluoromethylpyrimidin-2-yl)piperazin-1-yl]pyrimidine-4-carbonyl}amino)acrylic acid] | > 100 | 21.4 | –
